{"source": "patent US20170209373A1", "about": "“MULTIFUNCTIONAL POLYMERIC NANOPARTICLE FOR DIAGNOSIS OR TREATMENT OF CEREBRAL DISEASES AND A PREPARATION METHOD THEREOF” (KOREA INSTITUTE OF SCIENCE AND TECHNOLOGY, priority 2016, published 2017)", "system": "luciferase-expressing U-87 MG cells", "assay": "Cancer treating effect in brain tumor model (bioluminescence signals)", "assay_type": "in vivo, mouse", "procedure": "The NP-cur aqueous dispersion prepared according to Example 1-1 was intravenously injected daily at a dose of 200 μL from day 3 of the transplantation of the cancer cells in the brain tumor model prepared according to Example 3-1. […] For the control groups to which the drug was not administered, a group (control of FIG. 11) to which the F-127 aqueous solution was intravenously injected daily for 3 weeks at a dose of 200 μL, and a group (free curcumin of FIG. 11) to which curcumin which was not loaded in the polymeric nanoparticles but was dissolved in an organic solvent, dimethyl sulfoxide (DMSO, Daejung Chemicals & Metals Co., LTD., Korea), was intraperitoneally injected at a dosage of 360 mg/kg daily for 3 weeks was selected to observe the bioluminescence signals in the same manner as in the NP-cur administration experimental group. Finally, the bioluminescence signals observed in the two control groups and experimental group and the results of comparative analysis thereof are shown in FIG. 11.", "data": [{"smiles": "COc1cc(/C=C/C(=O)CC(=O)/C=C/c2ccc(O)c(OC)c2)ccc1O", "note": "[curcumin]", "values": [{"measurement": "effect on tumor growth", "setting": "NP-cur 0.2 mg/kg/d i.v., curcumin solution 360 mg/kg/d i.p.", "result": "only slightly slowed"}, {"measurement": "bioluminescence intensity of brain tumor over time (days 7, 14, 21)", "setting": "NP-cur 200 μL i.v. daily (0.2 mg/kg/d curcumin), free curcumin in DMSO i.p. 360 mg/kg daily for 3 weeks", "result": "still showed a large signal increase"}]}]}
